Results on five molecules are retold here after ChEMBL document CHEMBL1153316, “Selectivity profiling of DegP substrates and inhibitors” (Bioorg Med Chem, 2009).

The nature of assay [1]: Inhibition of subtilisin assessed as specific activity at 0.5 mM. Details: scale not given: the % may be the effect or the level left.
Assay [2] can be described thus: Inhibition of elastase assessed as specific activity at 0.5 mM. Details: scale not given: the % may be the effect or the level left.
The subject of assay [3] is Escherichia coli. Description: Inhibition of Escherichia coli degP assessed as specific activity at 0.5 mM. Also on record: scale not given: the % may be the effect or the level left.
Assay [4] in a line: Inhibition of kallikrein assessed as specific activity at 0.5 mM. Also on record: scale not given: the % may be the effect or the level left.
Assay [5] can be described thus: Inhibition of trypsin assessed as specific activity at 0.5 mM. Also on record: scale not given: the % may be the effect or the level left.
For assay [6], the system named is Escherichia coli. Description: Activity at Escherichia coli degP.
In assay [7] the target is Plasminogen (Homo sapiens) (UniProt P00747). Description: Inhibition of plasmin assessed as specific activity at 0.5 mM. Also on record: scale not given: the % may be the effect or the level left.
In assay [8] the target is Prothrombin (Homo sapiens) (UniProt P00734). Description: Inhibition of thrombin assessed as specific activity at 0.5 mM. Also on record: scale not given: the % may be the effect or the level left.
The nature of assay [9]: Inhibition of chymotrypsin assessed as specific activity at 0.5 mM. Details: scale not given: the % may be the effect or the level left.
The nature of assay [10]: Inhibition of kallikrein assessed as residual proteolytic activity at 0.5 mM.
Assay [11] in a line: Inhibition of subtilisin assessed as residual proteolytic activity at 0.5 mM.
Assay [12] relates to Escherichia coli. Description: Inhibition of Escherichia coli degP assessed as residual proteolytic activity at 0.5 mM.
Assay [13] is described as follows: Inhibition of trypsin assessed as residual proteolytic activity at 0.5 mM.
A short description of assay [14]: Inhibition of chymotrypsin assessed as residual proteolytic activity at 0.5 mM.
Assay [15] addresses Plasminogen (Homo sapiens) (UniProt P00747). Description: Inhibition of plasmin assessed as residual proteolytic activity at 0.5 mM.
Assay [16] can be described thus: Inhibition of elastase assessed as residual proteolytic activity at 0.5 mM.
Assay [17] concerns the target Prothrombin (Homo sapiens) (UniProt P00734). Description: Inhibition of thrombin assessed as residual proteolytic activity at 0.5 mM.
Assay [18] is described as follows: Inhibition of subtilisin.
Assay [19] in a line: Inhibition of Escherichia coli degP.
The nature of assay [20]: Inhibition of elastase.

What is called Km is the concentration of substrate that gives half-maximal velocity. The term Vmax denotes the rate approached at saturating substrate. By IC50 is commonly meant the midpoint of a concentration-inhibition curve.

Peptide text beside a SMILES is read from it.

Sequence of Plasminogen (Homo sapiens) (P00747 97-580 limits assumed): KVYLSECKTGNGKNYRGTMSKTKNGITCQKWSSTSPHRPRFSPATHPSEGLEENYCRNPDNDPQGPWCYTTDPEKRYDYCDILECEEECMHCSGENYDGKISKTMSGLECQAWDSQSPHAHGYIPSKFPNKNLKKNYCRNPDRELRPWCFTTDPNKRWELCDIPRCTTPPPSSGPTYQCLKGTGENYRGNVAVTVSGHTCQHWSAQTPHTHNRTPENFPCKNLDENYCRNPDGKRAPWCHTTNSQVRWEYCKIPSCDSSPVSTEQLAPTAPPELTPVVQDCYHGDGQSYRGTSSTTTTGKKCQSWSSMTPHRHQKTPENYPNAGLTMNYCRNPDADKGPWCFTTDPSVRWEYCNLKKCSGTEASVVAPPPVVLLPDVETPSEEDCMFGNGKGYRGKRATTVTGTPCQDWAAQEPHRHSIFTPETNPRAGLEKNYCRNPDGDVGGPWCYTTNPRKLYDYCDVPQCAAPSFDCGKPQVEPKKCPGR
Sequence of Plasminogen (Homo sapiens) (P00747 581-810 limits assumed): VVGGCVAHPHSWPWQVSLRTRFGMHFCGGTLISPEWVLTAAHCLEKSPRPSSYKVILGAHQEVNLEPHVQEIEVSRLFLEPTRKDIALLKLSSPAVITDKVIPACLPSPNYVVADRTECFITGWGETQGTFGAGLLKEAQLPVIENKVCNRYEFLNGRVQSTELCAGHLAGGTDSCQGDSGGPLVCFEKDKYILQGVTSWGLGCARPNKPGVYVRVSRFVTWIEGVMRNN

Regarding `CSCC[C@H](NC(=O)[C@@H]1CCCN1C(=O)[C@@H](N)CC(=O)O)C(=O)N[C@@H](Cc1ccccc1)C(=O)N[C@@H](CCCCN)C(=O)N[C@@H](CC(C)C)C(=O)N[C@H](C(=O)Nc1ccc([N+](=O)[O-])cc1)C(C)C` (HELM PEPTIDE1{D.P.M.F.K.L.V.[O=[N+]([O-])c1ccc(N[*:1])cc1]}$$$$V2.0), the Activity in assay [1] is 1%; in assay [2] it was 4%; in the assay with Escherichia coli [3], 473%; in assay [4] it was under 1%; in assay [5], under 1%; in assay [7], under 1%. Also, the Activity in assay [8] and in assay [9] was under 1% each time. The Km with Escherichia coli [6] stood at 600 µM. For the same molecule, in the assay on Escherichia coli [6], the Vmax was 1.2 µmol/min.

For `CSCC[C@H](NC(=O)[C@H](CCSC)NC(=O)[C@@H]1CCCN1C(=O)[C@H](CC(C)C)NC(=O)[C@@H](NC(=O)[C@H](CC(N)=O)NC(=O)[C@H](Cc1ccccc1)NC(=O)[C@@H](NC(=O)[C@@H]1CCCN1)C(C)C)[C@@H](C)O)C(=O)NCC(=O)N[C@@H](CCCCN)C(=O)N[C@@H](C)C(=O)N[C@@H](CO)C(=O)N1CCC[C@H]1C(=O)N[C@H](C(=O)CCl)C(C)C` (HELM PEPTIDE1{P.V.F.N.T.L.P.M.M.G.K.A.S.P.V.[ClC[*:1]]}$$$$V2.0), the Activity in assay [10] worked out at 122%; in assay [11], 143%; with Escherichia coli [12], 63%; in assay [13] it was 591%; in assay [14], 48%; in assay [15] it was 62%. Also, the Activity is under 1% in assay [16] and 101% in [17].

In the case of `CC(C)[C@H](NC(=O)[C@H](CCCNC(=N)N)NC(=O)CNC(=O)[C@@H](N)CO)C(=O)N[C@H](C(=O)N1CCC[C@H]1C(=O)NCC(=O)N[C@@H](Cc1ccc(O)cc1)C(=O)NCC(=O)N[C@@H](Cc1cnc[nH]1)C(=O)N[C@@H](C)C(=O)CCl)C(C)C` (HELM PEPTIDE1{S.G.R.V.V.P.G.Y.G.H.A.[ClC[*:1]]}$$$$V2.0), the Activity in [10] turned out to be 135%; in [11] it was 15%; in the assay on Escherichia coli [12] it was 102%; in [13], 285%; in assay [14], 69%; in assay [15] it was 62%. Further, the Activity is 83% in [16] and 131% in [17].

In the case of `CSCC[C@H](NC(=O)[C@@H]1CCCN1C(=O)[C@@H](N)CO)C(=O)N[C@@H](Cc1ccccc1)C(=O)N[C@@H](CCCCN)C(=O)NCC(=O)N[C@H](C(=O)CCl)C(C)C` (HELM PEPTIDE1{S.P.M.F.K.G.V.[ClC[*:1]]}$$$$V2.0), the Activity in assay [10] is 101%; in [11], under 1%; in the assay on Escherichia coli [12], 3%; in assay [13] it was 354%; in assay [14], 92%; in assay [15], 81%. The Activity in [16] was under 1%; in assay [17], 96%. Further, the IC50 in [18] came to 0.001 µM; in assay [19], 75 µM; in assay [20] it was 220 µM.

For the molecule `CSCC[C@H](NC(=O)[C@H](CCSC)NC(=O)[C@@H]1CCCN1C(=O)[C@H](CC(C)C)NC(=O)[C@@H](NC(=O)[C@H](CC(N)=O)NC(=O)[C@H](Cc1ccccc1)NC(=O)[C@@H](N)C(C)C)[C@@H](C)O)C(=O)NCC(=O)N[C@@H](CCCCN)C(=O)N[C@@H](C)C(=O)N[C@@H](CO)C(=O)N1CCC[C@H]1C(=O)N[C@H](C(=O)CCl)C(C)C` (HELM PEPTIDE1{V.F.N.T.L.P.M.M.G.K.A.S.P.V.[ClC[*:1]]}$$$$V2.0), the Activity in assay [10] stood at 88%; in assay [11], 155%; in the assay on Escherichia coli [12], 57%; in [13] it was 287%; in [14] it was 22%; in assay [15], 75%. Besides, the Activity in assay [16] was under 1%; in [17], 102%.
